Assay results from US6110956A, “N-aryloxyethylamine derivatives for the treatment of depression” (American Home Products Corp., priority 1999, dated 2000).
Read-outs that look alike come from different tables or passages of the source.

Tests used:
human 5-HT1A receptor = biological target: T1, human 5-HT1A receptor (Homo sapiens, UniProt P08908); test: 5-HT1A receptor binding ([3H]8-OH-DPAT, 5-HT1A.CHO cell membranes); details: for inhibition at 1 µM / inhibition at 0.01 µM: 0.5 h; for inhibition at 1 µM: read-out: 5-HT1A % @1000 nM; for inhibition at 0.01 µM: read-out: 5-HT1A % @10 nM
T1 construct: expressed in transfected cells
T1 sequence (P08908 1-422): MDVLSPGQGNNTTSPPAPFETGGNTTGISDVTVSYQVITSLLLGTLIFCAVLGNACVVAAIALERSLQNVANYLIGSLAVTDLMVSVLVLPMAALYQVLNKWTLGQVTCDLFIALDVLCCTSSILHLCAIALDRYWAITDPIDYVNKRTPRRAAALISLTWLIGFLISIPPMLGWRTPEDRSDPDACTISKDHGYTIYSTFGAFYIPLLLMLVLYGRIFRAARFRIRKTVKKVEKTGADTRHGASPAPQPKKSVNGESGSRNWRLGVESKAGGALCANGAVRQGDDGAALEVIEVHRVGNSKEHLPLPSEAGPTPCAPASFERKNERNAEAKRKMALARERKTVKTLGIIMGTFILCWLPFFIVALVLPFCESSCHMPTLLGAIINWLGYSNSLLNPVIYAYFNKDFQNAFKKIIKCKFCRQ
Procedure: (§1) The PCR cloning of the human 5-HT1A receptor subtype from a human genomic library has been described previously Chanda et al., Mol. Pharmacol., 43:516 (1993). A stable Chinese hamster ovary cell line expressing the human 5-HT1A receptor subtype (5-HT1A.CHO cells) was employed throughout this study. Cells were maintained in DMEM supplemented with 10% foetal calf serum, non-essential amino acids and penicillin/streptomycin.
Cells were grown to 95-100% confluency as a monolayer before membranes were harvested for binding studies. Cells were gently scraped from the culture plates, transferred to centrifuge tubes, and washed twice by centrifugation (2000 rpm for 10 min., 4° C.) in buffer (50 mM Tris; pH 7.5). The resulting pellets were aliquoted and placed at -80° C. On the day of assay, the cells were thawed on ice, and resuspended in buffer. Studies were conducted using [^3 H]8-OH-DPAT as the radioligand. The binding assay was performed in 96 well microtiter plates in a final total volume of 250 μL of buffer. Competition experiments were performed by using 7 concentrations of unlabelled drug and a final ligand concentration of 1.5 nM . Non-specific binding was determined in the presence of 10 μM 5HT. Saturation analysis was conducted by using [^3 H]8-OH-DPAT at concentrations ranging from 0.3-30 nM. Following a 30 minute incubation at room temperature, the reaction was terminated by the addition of ice cold buffer and rapid filtration using a M-96 Brandel Cell Harvester (Gaithersburg, Md.) through a GF/B filter presoaked for 30 minutes in 0.5% polyethyleneimine.

serotonin transporter = biological target: T2, serotonin transporter (Rattus norvegicus, UniProt P31652); test: serotonin transporter (ST) affinity, 3H-paroxetine binding in frontal cortical membranes; set-up: species or system male Sprague-Dawley rats
T2 construct: frontal cortical membranes prepared from male Sprague-Dawley rats; from tissue; host or cells: frontal cortical membranes of male Sprague-Dawley rats
Procedure: Briefly, frontal cortical membranes prepared from male Sprague-Dawley rats were incubated with ^3 H-paroxetine (0.1 nM) for 60 min at 25° C. All tubes also contained either vehicle, test compound (one to eight concentrations), or a saturating concentration of fluoxetine (10 μM) to define […]. All reactions are terminated by the addition of ice cold Tris buffer followed by rapid filtration using a Tom Tech filtration device to separate bound from free ^3 H-paroxetine.

5-HT1A cloned receptor = biological target: T3, 5-HT1A cloned receptor (Homo sapiens, UniProt P08908); test: [35S]-GTPγS binding assay, 5-HT1A cloned receptor membranes; format: biochemical; details: maximum agonist response defined by excess 8-OH-DPAT
T3 construct: expressed in transfected cells
T3 sequence (P08908 1-422): T1 sequence (P08908 1-422)
Text: as §1
The [^35 S]-GTPγS binding assay was similar to that used by Lazareno and Birdsall, Br. J. Pharmacol. 109:1120 (1993). Briefly, 5-HT1A cloned receptor membrane fragments (as used for 5-HT1A receptor binding assays) were stored at -70° C. until needed. When needed, membranes were rapidly thawed, centrifuged at 40,000×g for 10 minutes and resuspended at 4° C. for 10 minutes in assay buffer ([…], 3 mM MgCl2, 100 mM NaCl, 1 mM EDTA, 10 uM GDP, […], pH 8.0). These membranes were then incubated for 30 min at 30° C. with [^35 S]GTPgS (1 nM) in the presence of vehicle, test compound (one to eight concentrations), or excess 8-OH-DPAT to define maximum agonist response. All reactions are terminated by the addition of ice cold Tris buffer followed by rapid filtration using a Tom Tech® filtration device to separate bound from free [^35 S]GTPgS. […] Bound radioactivity was counted and analyzed as above.

T2 sequence (P31652 whole entry): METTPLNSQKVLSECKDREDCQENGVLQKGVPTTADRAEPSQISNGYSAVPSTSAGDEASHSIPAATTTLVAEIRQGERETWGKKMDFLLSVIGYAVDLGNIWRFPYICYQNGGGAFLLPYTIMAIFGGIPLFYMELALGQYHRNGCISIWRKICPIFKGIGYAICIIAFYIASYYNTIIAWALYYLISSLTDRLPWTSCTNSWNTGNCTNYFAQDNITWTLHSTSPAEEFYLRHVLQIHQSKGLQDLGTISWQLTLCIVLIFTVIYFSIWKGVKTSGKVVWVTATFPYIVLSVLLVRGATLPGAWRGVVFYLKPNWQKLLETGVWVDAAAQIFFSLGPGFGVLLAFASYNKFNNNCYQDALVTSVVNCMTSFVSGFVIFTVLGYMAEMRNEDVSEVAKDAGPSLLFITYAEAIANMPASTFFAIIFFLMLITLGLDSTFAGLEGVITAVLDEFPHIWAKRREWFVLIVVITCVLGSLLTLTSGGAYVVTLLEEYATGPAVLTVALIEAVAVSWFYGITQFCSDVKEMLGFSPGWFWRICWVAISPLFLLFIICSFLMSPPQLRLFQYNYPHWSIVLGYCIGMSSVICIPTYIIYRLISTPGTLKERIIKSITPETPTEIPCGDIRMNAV

Structure (SMILES) | inhibition at 1 µM (human 5-HT1A receptor) [%] | inhibition at 0.01 µM (human 5-HT1A receptor) [%] | further results
Cn1cc([C@H]2CC[C@@H](NCCOc3cc(F)cc4c3OCCC4)CC2)c2cc(C#N)ccc21 [Example 5c, 3-{(1,4-cis)-4-[2-(6-Fluoro-chroman-8-yloxy)-ethylamino]-cyclohexyl}-1-methyl-1H-indole-5-carbonitrile] | 47 | – | –
COc1cc(F)ccc1OCCN[C@H]1CC[C@@H](c2c[nH]c3ccc(F)cc32)CC1 [Example 9a, [(1,4-cis)-4-(5-Fluoro-1H-indol-3-yl)-cyclohexyl]-[2-(4-fluoro-2-methoxy-phenoxy)-ethyl]-amine] | – | 16 | –
COc1cc(F)c(F)cc1OCCN[C@H]1CC[C@@H](c2c[nH]c3ccc(F)cc32)CC1 [Example 11a, (1,4-cis)-[2-(4,5-Difluoro-2-methoxy-phenoxy)-ethyl]-[4-(5-fluoro-1H-indol-3-yl)-cyclohexyl]-amine] | – | 0 | –
OC1(CNCCOc2cccc3[nH]ccc23)CCC(c2c[nH]c3ccc(F)cc23)CC1 (centres unmarked) [Example 13, (1,4)-4-(5-Fluoro-1H-indol-3-yl)-1-{[2-(1H-indol-4-yloxy)-ethylamino]-methyl}-cyclohexanol] | – | – | Ki (human 5-HT1A receptor; [3H]8-OH-DPAT 1.5 nM, 30 minutes, room temperature, read-out: 5-HT1A (Ki)): 257 nM
N#Cc1ccc2[nH]cc([C@H]3CC[C@@H](NCCOc4cc(F)cc5c4OCC5)CC3)c2c1 [Example 6a] | 49 | – | –
COc1ccccc1OCCNCC1CCC(c2c[nH]c3ccc(C#N)cc23)CC1 (centres unmarked) [Example 10b, 3-(4-{[2-(Methoxy-phenoxy)-ethylamino]-methyl}-cyclohexyl)-1H-indole-5-carbonitrile] | – | 7 | –
Fc1cc2c(c(OCCN[C@H]3CC[C@@H](c4c[nH]c5ccc(F)cc54)CC3)c1)OCCC2 [Example 5a, [2-(6-Fluoro-chroman-8-yloxy)-ethyl]-[(1,4-cis)-4-(5-fluoro-1H-indol-3-yl)-cyclohexyl]-amine] | 49 | – | –
COc1ccccc1OCCNC[C@H]1CC[C@H](c2c[nH]c3ccc(F)cc32)CC1 [Example 10a, [(1,4-trans)-4-(5-Fluoro-1H-indol-3-yl)-cyclohexylmethyl]-[2-(2-methoxy-phenoxy)-ethyl]-amine] | – | – | Ki (human 5-HT1A receptor): 26.8 nM; Ki (serotonin transporter): 7.33 nM; Emax (5-HT1A cloned receptor): 60%
COc1cc(S(C)(=O)=O)c(F)cc1OCCN[C@H]1CC[C@H](c2c[nH]c3ccc(F)cc32)CC1 [Example 12, [(1,4-trans)-4-(5-Fluoro-1H-indol-3-yl)-cyclohexyl]-[2-(5-fluoro-4-methanesulfonyl-2-methoxy-phenoxy)-ethyl]-amine] | – | 0 | –
